# Results published in publication PMC9963398, “Discovery of New Quinolone-Based Diarylamides as Potent B-RAF^V600E/C-RAF Kinase Inhibitors Endowed with Promising In Vitro Anticancer Activity” (International Journal of Molecular Sciences, 2023).
# How the values were obtained:
# [1] = system: SN12C; assay: NCI-60 five-dose SRB assay; type: cell-based; conditions: Homo sapiens, Renal cancer, five-dose test
# Procedure: (§1) The anticancer screening of target compounds over a full panel of 60 human cancer cell lines was carried out using Sulforhodamine B (SRB) assay at the National Cancer Institute (NCI), Bethesda, Maryland, USA, employing the standard protocol.
# [2] = system: SK-MEL-2; assay: NCI-60 five-dose SRB assay; type: cell-based; conditions: Homo sapiens; SK-MEL-2, Melanoma, five-dose test
# Procedure: as §1
# [3] = system: OVCAR-4; assay: NCI-60 five-dose SRB assay; type: cell-based; conditions: Homo sapiens; OVCAR-4, Ovarian cancer, five-dose test
# Procedure: as §1
# [4] = system: MALME-3M; assay: NCI-60 five-dose SRB assay; type: cell-based; conditions: Homo sapiens, Melanoma, five-dose test
# Procedure: as §1
# [5] = system: HCT-116; assay: NCI-60 five-dose SRB assay; type: cell-based; conditions: Homo sapiens; HCT-116, Colon cancer, five-dose test
# Procedure: as §1
# [6] = system: SK-OV-3; assay: NCI-60 five-dose SRB assay; type: cell-based; conditions: Homo sapiens; SK-OV-3, Ovarian cancer, five-dose test
# Procedure: as §1
# [7] = system: A498; assay: NCI-60 five-dose SRB assay; type: cell-based; conditions: Homo sapiens; A498, Renal cancer, five-dose test
# Procedure: as §1
# [8] = system: SK-MEL-5; assay: NCI-60 five-dose SRB assay; type: cell-based; conditions: Homo sapiens; SK-MEL-5, Melanoma, five-dose test
# Procedure: as §1
# [9] = system: OVCAR-8; assay: NCI-60 five-dose SRB assay; type: cell-based; conditions: Homo sapiens; OVCAR-8, Ovarian cancer, five-dose test
# Procedure: as §1
# [10] = system: BT-549; assay: NCI-60 five-dose SRB assay; type: cell-based; conditions: Homo sapiens; BT-549, Breast cancer, five-dose test
# Procedure: as §1
# [11] = system: SW-620; assay: NCI-60 five-dose SRB assay; type: cell-based; conditions: Homo sapiens; SW-620, Colon cancer, five-dose test
# Procedure: as §1
# [12] = system: OVCAR-3; assay: NCI-60 five-dose SRB assay; type: cell-based; conditions: Homo sapiens; OVCAR-3, Ovarian cancer, five-dose test
# Procedure: as §1
# [13] = system: DU-145; assay: NCI-60 five-dose SRB assay; type: cell-based; conditions: Homo sapiens; DU-145, Prostate cancer, five-dose test
# Procedure: as §1
# [14] = system: UO-31; assay: NCI-60 five-dose SRB assay; type: cell-based; conditions: Homo sapiens; UO-31, Renal cancer, five-dose test
# Procedure: as §1
# [15] = system: 786-0; assay: NCI-60 five-dose SRB assay; type: cell-based; conditions: Homo sapiens; 786-0, Renal cancer, five-dose test
# Procedure: as §1
# [16] = system: NCI-H226; assay: NCI-60 five-dose SRB assay; type: cell-based; conditions: Homo sapiens; NCI-H226, NSCL cancer, five-dose test
# Procedure: as §1
# [17] = system: OVCAR-5; assay: NCI-60 five-dose SRB assay; type: cell-based; conditions: Homo sapiens; OVCAR-5, Ovarian cancer, five-dose test
# Procedure: as §1
# [18] = system: HCT-15; assay: NCI-60 five-dose SRB assay; type: cell-based; conditions: Homo sapiens; HCT-15, Colon cancer, five-dose test
# Procedure: as §1
# [19] = system: HOP-62; assay: NCI-60 five-dose SRB assay; type: cell-based; conditions: Homo sapiens; HOP-62, NSCL cancer, five-dose test
# Procedure: as §1
# [20] = system: NCI-H23; assay: NCI-60 five-dose SRB assay; type: cell-based; conditions: Homo sapiens; NCI-H23, NSCL cancer, five-dose test
# Procedure: as §1
# [21] = system: MDA-MB-435; assay: NCI-60 five-dose SRB assay; type: cell-based; conditions: Homo sapiens; MDA-MB-435, Melanoma, five-dose test
# Procedure: as §1
# [22] = system: SNB-19; assay: NCI-60 five-dose SRB assay; type: cell-based; conditions: Homo sapiens; SNB-19, CNS cancer, five-dose test
# Procedure: as §1
# [23] = system: T-47D; assay: NCI-60 five-dose SRB assay; type: cell-based; conditions: Homo sapiens, T47D, Breast cancer, five-dose test
# Procedure: as §1
# [24] = system: CCRF-CEM; assay: NCI-60 five-dose SRB assay; type: cell-based; conditions: Homo sapiens, Leukemia, five-dose test
# Procedure: as §1
# [25] = system: M14; assay: NCI-60 five-dose SRB assay; type: cell-based; conditions: Homo sapiens; M14, Melanoma, five-dose test
# Procedure: as §1
# [26] = system: ACHN; assay: NCI-60 five-dose SRB assay; type: cell-based; conditions: Homo sapiens, Renal cancer, five-dose test
# Procedure: as §1
# [27] = system: CAKI-1; assay: NCI-60 five-dose SRB assay; type: cell-based; conditions: Homo sapiens; CAKI-1, Renal cancer, five-dose test
# Procedure: as §1
# [28] = system: SF-539; assay: NCI-60 five-dose SRB assay; type: cell-based; conditions: Homo sapiens; SF-539, CNS cancer, five-dose test
# Procedure: as §1
# [29] = system: K-562; assay: NCI-60 five-dose SRB assay; type: cell-based; conditions: Homo sapiens, K562; K-562, Leukemia, five-dose test
# Procedure: as §1
# [30] = system: TK-10; assay: NCI-60 five-dose SRB assay; type: cell-based; conditions: Homo sapiens; TK-10, Renal cancer, five-dose test
# Procedure: as §1
# [31] = system: RXF 393; assay: NCI-60 five-dose SRB assay; type: cell-based; conditions: Homo sapiens; RXF 393, Renal cancer, five-dose test
# Procedure: as §1
# [32] = system: HT29; assay: NCI-60 five-dose SRB assay; type: cell-based; conditions: Homo sapiens, HT-29; HT29, Colon cancer, five-dose test
# Procedure: as §1
# [33] = system: NCI-H322M; assay: NCI-60 five-dose SRB assay; type: cell-based; conditions: Homo sapiens, NSCL cancer, five-dose test
# Procedure: as §1
# [34] = system: NCI-H522; assay: NCI-60 five-dose SRB assay; type: cell-based; conditions: Homo sapiens; NCI-H522, NSCL cancer, five-dose test
# Procedure: as §1
# [35] = system: LOX IMVI; assay: NCI-60 five-dose SRB assay; type: cell-based; conditions: Homo sapiens, Melanoma, five-dose test
# Procedure: as §1
# [36] = system: EKVX; assay: NCI-60 five-dose SRB assay; type: cell-based; conditions: Homo sapiens, NSCL cancer, five-dose test
# Procedure: as §1
# [37] = system: RPMI-8226; assay: NCI-60 five-dose SRB assay; type: cell-based; conditions: Homo sapiens; RPMI-8226, Leukemia, five-dose test
# Procedure: as §1
# [38] = system: HCC-2998; assay: NCI-60 five-dose SRB assay; type: cell-based; conditions: Homo sapiens; HCC-2998, Colon cancer, five-dose test
# Procedure: as §1
# [39] = system: U251; assay: NCI-60 five-dose SRB assay; type: cell-based; conditions: Homo sapiens, U-251; U251, CNS cancer, five-dose test
# Procedure: as §1
# [40] = system: HL-60(TB); assay: NCI-60 five-dose SRB assay; type: cell-based; conditions: Homo sapiens, Leukemia, five-dose test
# Procedure: as §1
# [41] = molecular target: T1, B-RAF^V600E (Homo sapiens, UniProt P15056, V600E); assay: HotSpot kinase assay (RBC), B-RAF^V600E; type: biochemical; conditions: 10 µM ATP, 10-dose singlicate IC50 mode
# T1 construct: purchased Reaction Biology Corporation (RBC), Kinase HotSpot service
# [42] = system: SR; assay: NCI-60 five-dose SRB assay; type: cell-based; conditions: Homo sapiens, Leukemia, five-dose test
# Procedure: as §1
# T1 sequence (P15056 whole entry V600E): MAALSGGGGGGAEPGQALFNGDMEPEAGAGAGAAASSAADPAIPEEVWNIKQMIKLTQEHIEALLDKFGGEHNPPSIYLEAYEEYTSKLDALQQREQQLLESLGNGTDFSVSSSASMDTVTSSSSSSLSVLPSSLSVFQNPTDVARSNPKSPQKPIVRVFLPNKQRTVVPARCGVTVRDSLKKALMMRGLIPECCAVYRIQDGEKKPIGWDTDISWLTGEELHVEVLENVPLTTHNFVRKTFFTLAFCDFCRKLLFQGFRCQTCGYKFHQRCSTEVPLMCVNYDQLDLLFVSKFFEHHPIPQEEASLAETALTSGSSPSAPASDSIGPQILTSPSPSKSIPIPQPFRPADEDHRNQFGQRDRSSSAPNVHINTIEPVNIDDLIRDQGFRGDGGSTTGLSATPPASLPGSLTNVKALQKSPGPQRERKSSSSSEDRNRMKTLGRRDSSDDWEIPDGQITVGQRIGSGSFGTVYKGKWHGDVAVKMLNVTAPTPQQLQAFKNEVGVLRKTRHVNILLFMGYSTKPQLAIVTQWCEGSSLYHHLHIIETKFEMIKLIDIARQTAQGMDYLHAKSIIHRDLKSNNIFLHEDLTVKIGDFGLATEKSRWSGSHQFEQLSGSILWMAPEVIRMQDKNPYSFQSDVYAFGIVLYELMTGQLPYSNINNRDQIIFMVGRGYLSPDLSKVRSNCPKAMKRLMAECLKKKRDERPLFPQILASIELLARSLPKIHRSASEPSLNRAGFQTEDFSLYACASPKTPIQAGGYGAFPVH
compound,measurement,setting,value
"COc1cccc2nc(Nc3cccc(NC(=O)c4ccc(CN5CCCN(C)CC5)c(C(F)(F)F)c4)c3)ccc12 [Compound 14b, N-(3-((5-methoxyquinolin-2-yl)amino)phenyl)-4-((4-methyl-1,4-diazepan-1-yl)methyl)-3-(trifluoromethyl)benzamide]",GI50,[1],1.63 µM
same,GI50,[2],2.15 µM
same,GI50,[3],2.67 µM
same,GI50,[4],1.72 µM
same,GI50,[5],1.67 µM
same,GI50,[6],4.33 µM
same,GI50,[7],13.5 µM
same,GI50,[8],1.71 µM
same,GI50,[9],2.03 µM
same,GI50,[10],2.06 µM
same,GI50,[11],1.75 µM
same,GI50,[12],2.14 µM
same,GI50,[13],2.19 µM
same,GI50,[14],1.74 µM
same,GI50,[15],1.72 µM
same,GI50,[16],1.94 µM
same,GI50,[17],1.71 µM
same,GI50,[18],1.62 µM
same,GI50,[19],1.76 µM
same,GI50,[20],1.68 µM
same,GI50,[21],1.8 µM
same,GI50,[22],1.72 µM
same,GI50,[23],5.43 µM
same,GI50,[24],1.62 µM
same,GI50,[25],1.81 µM
same,GI50,[26],1.87 µM
same,GI50,[27],1.72 µM
same,GI50,[28],1.55 µM
same,GI50,[29],1.23 µM
same,GI50,[30],4.91 µM
same,GI50,[31],1.66 µM
same,GI50,[32],1.66 µM
same,GI50,[33],2.12 µM
same,GI50,[34],1.76 µM
same,GI50,[35],1.68 µM
same,GI50,[36],1.72 µM
same,GI50,[37],1.93 µM
same,GI50,[38],1.71 µM
same,GI50,[39],1.76 µM
same,GI50,[40],1.65 µM
same,IC50,[41],0.355 ± 0.0108 µM
"CN1CCCN(Cc2ccc(C(=O)Nc3cccc(Nc4ccc5c(O)cccc5n4)c3)cc2C(F)(F)F)CC1 [Compound 17b, N-(3-((5-hydroxyquinolin-2-yl)amino)phenyl)-4-((4-methyl-1,4-diazepan-1-yl)methyl)-3-(trifluoromethyl)benzamide]",GI50,[1],1.83 µM
same,GI50,[2],1.81 µM
same,GI50,[3],3.83 µM
same,GI50,[4],1.7 µM
same,GI50,[5],1.62 µM
same,GI50,[6],11.1 µM
same,GI50,[7],15.3 µM
same,GI50,[8],1.72 µM
same,GI50,[9],2.51 µM
same,GI50,[10],1.8 µM
same,GI50,[11],1.95 µM
same,GI50,[12],1.97 µM
same,GI50,[13],3.27 µM
same,GI50,[14],2.04 µM
same,GI50,[15],2.06 µM
same,GI50,[16],16.7 µM
same,GI50,[17],11.4 µM
same,GI50,[18],1.93 µM
same,GI50,[19],2.03 µM
same,GI50,[20],1.78 µM
same,GI50,[21],1.78 µM
same,GI50,[22],2.03 µM
same,GI50,[23],3.46 µM
same,GI50,[24],2.07 µM
same,GI50,[25],1.89 µM
same,GI50,[26],1.92 µM
same,GI50,[27],1.79 µM
same,GI50,[28],1.7 µM
same,GI50,[29],2.18 µM
same,GI50,[30],2.8 µM
same,GI50,[31],1.85 µM
same,GI50,[32],1.92 µM
same,GI50,[33],3.27 µM
same,GI50,[34],1.84 µM
same,GI50,[35],1.63 µM
same,GI50,[36],1.82 µM
same,GI50,[37],2.89 µM
same,GI50,[38],1.8 µM
same,GI50,[39],2.07 µM
same,GI50,[40],2.35 µM
same,IC50,[41],0.128 ± 5e-05 µM
"CN1CCCN(Cc2ccc(C(=O)Nc3cccc(Nc4ccc5cc(O)ccc5n4)c3)cc2C(F)(F)F)CC1 [Compound 18b, N-(3-((6-hydroxyquinolin-2-yl)amino)phenyl)-4-((4-methyl-1,4-diazepan-1-yl)methyl)-3-(trifluoromethyl)benzamide]",GI50,[1],17.3 µM
same,GI50,[2],17.2 µM
same,GI50,[3],15 µM
same,GI50,[4],12.6 µM
same,GI50,[5],6.51 µM
same,GI50,[6],17.6 µM
same,GI50,[7],17.6 µM
same,GI50,[8],16.1 µM
same,GI50,[9],18.9 µM
same,GI50,[11],14.5 µM
same,GI50,[12],16.3 µM
same,GI50,[13],16.9 µM
same,GI50,[14],15.2 µM
same,GI50,[15],16 µM
same,GI50,[16],13.8 µM
same,GI50,[17],15.3 µM
same,GI50,[18],16.4 µM
same,GI50,[19],17.8 µM
same,GI50,[20],16.8 µM
same,GI50,[21],10.4 µM
same,GI50,[22],17 µM
same,GI50,[23],15.8 µM
same,GI50,[42],1.89 µM
same,GI50,[24],4.94 µM
same,GI50,[25],12.7 µM
same,GI50,[26],19.7 µM
same,GI50,[27],14.1 µM
same,GI50,[28],11.3 µM
same,GI50,[29],1.18 µM
same,GI50,[30],18.5 µM
same,GI50,[31],12.5 µM
same,GI50,[32],13.3 µM
same,GI50,[33],16.2 µM
same,GI50,[34],17 µM
same,GI50,[35],12.1 µM
same,GI50,[36],16 µM
same,GI50,[37],11.4 µM
same,GI50,[38],16.5 µM
same,GI50,[39],14.8 µM
same,GI50,[40],11.9 µM
same,IC50,[41],0.227 ± 0.00355 µM
